Results on 16 compounds are retold here after US7863449B2, “Modulators of muscarinic receptors” (Vertex Pharmaceuticals Incorporated, priority 2004, dated 2011).

Where only a bound is given, the exact number is not on record here.

One experiment deals with T1, M1 muscarinic receptor (Homo sapiens, UniProt P11229).
T1 construct: expressed in transfected cells; host or cells: CHO (M1-CHO)
T1 sequence (P11229 1-460): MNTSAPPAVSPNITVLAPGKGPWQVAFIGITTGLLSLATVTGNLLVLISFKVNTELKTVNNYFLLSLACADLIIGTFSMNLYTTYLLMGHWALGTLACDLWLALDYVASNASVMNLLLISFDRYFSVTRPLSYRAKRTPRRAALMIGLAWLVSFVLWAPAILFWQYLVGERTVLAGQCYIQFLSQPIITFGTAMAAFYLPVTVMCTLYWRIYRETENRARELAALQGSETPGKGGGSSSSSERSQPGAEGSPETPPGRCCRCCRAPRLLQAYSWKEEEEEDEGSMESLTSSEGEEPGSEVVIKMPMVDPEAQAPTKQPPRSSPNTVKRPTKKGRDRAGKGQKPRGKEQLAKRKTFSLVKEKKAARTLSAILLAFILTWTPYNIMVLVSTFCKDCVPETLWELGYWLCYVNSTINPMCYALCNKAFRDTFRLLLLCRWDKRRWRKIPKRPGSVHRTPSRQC
Nature of the experiment: Functional mobilization of intracellular calcium (FLIPR), M1-CHO cells. The experiment is classed as cell-based. To be noted: for Emax: 100% efficacy is the maximum response obtained using Carbachol as a control; for M1 Activity: M1-CHO cells, FLIPR calcium mobilization. How it is done: (§1) Functional Mobilization of Intracellular Calcium to Determine Muscarinic Receptor Activity:
(§2) CHO cells expressing muscarinic receptors (M1 to M5) are grown as monolayers in tissue culture flasks at 37° C. in a humidified atmosphere containing 5% CO2 and passaged every 3-5 days. The growth media is Dulbecco's modified eagles medium (DMEM, Gibco Cat# 12430-054), containing 25 mM Hepes and supplemented with Fetal Bovine Serum (Hyclone, cat# SH30071.03), 0.1 mM of MEM non-essential amino acids (GIBCO, Cat# 11140-050), 1 mM MEM Sodium Pyruvate (GIBCO Cat# 11360-070) and 100 units/ml of Penicillin G and 100 μg/ml of Streptomycin (GIBCO Cat# 15140-122). The recombinant muscarinic receptor cell lines are grown under antibiotic pressure with media containing 25 μg/ml zeocin and 500 μg/ml G418 (M1-CHO), 4 μg/ml puromycin, 50 μg/ml zeocin and 2.5 μg/ml blasticidin (M2 and M4-CHO) or 50 μg/ml zeocin and 4 μg/ml puromycin (M3 and M5-CHO).
(§3) Cells are harvested at 80-90% confluence using Versene (GIBCO Cat# 15040-066), collected by centrifugation and seeded 18-24 hrs prior to running the calcium assay at a density of 5,000-10,000 cells/well in […], clear-bottomed 384-well plates (BD Biocoat, poly-D-lysine, Cat#356663). The day of the experiment, the cells are washed with a plate washer (Bioteck Instruments, ELX 405) using bath1 buffer (140-mM NaCl, 4.5-mM KCl, 2-mM CaCl2, 1-mM MgCl2, 10-mM Hepes-Na, 10-mM Glucose, pH 7.4, with NaOH) containing 1 mM Probenecid. Next, the calcium dye Fluo-3 (25 μl/well of Fluo-3 AM at 4 μM, Molecular Probes F-1241, in Bath 1 buffer containing 1 mM Probenecid) is added to the 25 μl of Bath 1 remaining in each well after the plate wash and the dye is loaded at 37° C. in the tissue culture incubator for 60-90 min. The fluorescent dye is removed using the plate washer with Bath 1 containing 1 mM Probenecid, leaving 25 μl/well of this solution after the wash. Alternatively, cells can be loaded with the calcium indicator from Molecular Devices (Calcium 3 Assay Reagents, Cat # R7181) adding 5 μl of a 5× solution dye in Bath 1 containing 1 mM Probenecid (10 ml per dye flask cat# R7182 to generate a solution 20×) to 20 μl of the same buffer. After loading for 60 min, the experiment can be run without having to remove the dye.
(§4) Compounds are prepared at a 2× fold concentration in a 96-well plate (round bottom, Costar Corning cat# 3656), by reconstituting the pre-spotted compounds in bath 1 containing 1 mM probenecid. The final concentration DMSO is 0.5%, and the amount of DMSO is normalized across the assay plate. To determine an agonist action of the compounds on muscarinic receptors, the reconstituted compounds are added (25 μl compound/well) to the cell assay plate (containing 25 μl/well) using the multi-channel robotic system of the FLIPR 3 Instrument (Molecular Devices, Sunnyvale, Calif.). To determine a functional inhibitory action of the compounds on muscarinic receptors, the reconstituted compounds are added (25 μl compound/well) to the assay plate and pre-incubated for 15 min prior to adding 25 μl of Carbachol at 3× the EC80 for each muscarinic subtype. Alternatively, the compounds can be co-applied simultaneously with the agonist. In both assay modes, the fluorescence is recorded for 60 sec (excitation wavelength is […] and emission wavelength 540 nm) using the FLIPR 3 instrument.
(§5) The potency, efficacy and selectivity of the muscarinic compounds were evaluated by screening the compound activity across the whole family (M1 to M5 cells). Compounds were also screened for activity on other proteins such as other GPCRs and ion channels to determine selectivity on M4 receptors.

The target in the next experiment is T2, M4 muscarinic receptor (Homo sapiens, UniProt P08173).
T2 construct: expressed in transfected cells; host or cells: CHO (M4-CHO)
T2 sequence (P08173 1-479): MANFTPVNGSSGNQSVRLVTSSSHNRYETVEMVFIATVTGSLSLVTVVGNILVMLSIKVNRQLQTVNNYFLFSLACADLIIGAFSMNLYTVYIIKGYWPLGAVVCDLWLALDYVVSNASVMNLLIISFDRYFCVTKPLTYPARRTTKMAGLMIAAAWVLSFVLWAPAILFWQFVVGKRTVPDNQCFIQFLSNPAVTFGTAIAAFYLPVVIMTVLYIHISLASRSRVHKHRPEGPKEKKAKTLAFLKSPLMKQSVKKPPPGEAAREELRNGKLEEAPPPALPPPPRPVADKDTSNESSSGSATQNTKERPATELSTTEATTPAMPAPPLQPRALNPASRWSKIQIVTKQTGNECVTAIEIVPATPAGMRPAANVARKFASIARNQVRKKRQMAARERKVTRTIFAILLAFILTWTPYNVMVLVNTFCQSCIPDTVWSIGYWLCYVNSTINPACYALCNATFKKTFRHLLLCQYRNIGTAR
Nature of the experiment: Functional mobilization of intracellular calcium (FLIPR), M4-CHO cells. The following applies: for Emax: 100% efficacy is the maximum response obtained using Carbachol as a control; for M4 Activity: M4-CHO cells, FLIPR calcium mobilization. Format: cell-based. On the procedure: as §1, §2, §3, §4, §5
Background: A change in cytosolic calcium serves as a functional read-out for many receptors and channels.

On to `CN(C)C(=O)N1Cc2ccccc2C2(CCN(C3CC4CCC(C3)N4C(=O)O[C@@H]3CCOC3)CC2)C1` (stereo partly drawn) [compound 48, (R)-tetrahydrofuran-3-yl 3-(2-(dimethylcarbamoyl)-2,3-dihydro-1H -spiro[isoquinoline-4,4′-piperidine]-1′-yl)-8-azabicyclo[3.2.1]octane-8-carboxylate], for which, at M1 muscarinic receptor, the Emax is 25 to 100% and the “M1 Activity” value is “+++ (activity was measured to be less than 1.0 μM)”. On M4 muscarinic receptor, the maximal response (Emax) lay in the range of 25 to 100% and the “M4 Activity” value is listed as “+++ (activity was measured to be less than 1.0 μM)”.
For `COC(=O)N1CC(CN2CCC3(CC2)CN(C(C)=O)Cc2ccccc23)C1` [compound 50], on M1 muscarinic receptor, the Emax is under 25% and the “M1 Activity” value is recorded as “+ (activity was measured to be greater than 5.0 μM)”. At M4 muscarinic receptor, the maximum response (Emax) was under 25% and the “M4 Activity” value is “+ (activity was measured to be greater than 5.0 μM)”.
`CCOC(=O)N1CCC(CN2CCC3(CC2)CN(C(=O)Nc2ccccc2)Cc2ccccc23)CC1` [compound 51]: at M1 muscarinic receptor, the Emax was 25 to 100% and the “M1 Activity” value was “+++ (activity was measured to be less than 1.0 μM)”. In addition, on M4 muscarinic receptor, the Emax was 25 to 100% and the “M4 Activity” value is given as “+++ (activity was measured to be less than 1.0 μM)”.
Consider `O=C1c2ccccc2C2(CCN(CC3CCCCC3)CC2)N1Cc1ccccc1` [compound 52], for which, at M1 muscarinic receptor, the Emax was in the range of 25 to 100% and the “M1 Activity” value is “+ (activity was measured to be greater than 5.0 μM)”. In addition, on M4 muscarinic receptor, the Emax is under 25% and the “M4 Activity” value is recorded as “+ (activity was measured to be greater than 5.0 μM)”.
`CCOC(=O)N1CCC(N2CCC3(CC2)CN(C(=O)NC(C)(C)C)Cc2ccccc23)CC1` [compound 53]: on M1 muscarinic receptor, the Emax lay within 25 to 100% and the “M1 Activity” value was “+++ (activity was measured to be less than 1.0 μM)”. Besides, at M4 muscarinic receptor, the Emax fell in the range of 25 to 100% and the “M4 Activity” value is reported as “+++ (activity was measured to be less than 1.0 μM)”.
As to `O=C1NC2(CCN(CC3CCCCC3)CC2)c2ccccc21` [compound 54], on M1 muscarinic receptor, the Emax is under 25% and the “M1 Activity” value is listed as “+ (activity was measured to be greater than 5.0 μM)”. Also, on M4 muscarinic receptor, the Emax was 25 to 100% and the “M4 Activity” value is listed as “+ (activity was measured to be greater than 5.0 μM)”.
`CCCCOC(=O)N1Cc2ccccc2C2(CCN(C3CCN(C(=O)OCC)CC3)CC2)C1` [compound 56]: at M1 muscarinic receptor, the Emax was in the range of 25 to 100% and the “M1 Activity” value is “+++ (activity was measured to be less than 1.0 μM)”. For the same compound, on M4 muscarinic receptor, the maximum response (Emax) was 25 to 100% and the “M4 Activity” value is listed as “+++ (activity was measured to be less than 1.0 μM)”.
Turning to `CC(=O)N1Cc2ccccc2C2(CCN(CC3CCCCO3)CC2)C1` (stereo not shown) [compound 58], on M1 muscarinic receptor, the Emax is under 25% and the “M1 Activity” value is recorded as “+ (activity was measured to be greater than 5.0 μM)”. At M4 muscarinic receptor, the Emax is under 25% and the “M4 Activity” value is given as “+ (activity was measured to be greater than 5.0 μM)”.
For the compound `CCC(=O)Oc1ccc(CN2CCC3(CC2)CN(C(C)=O)Cc2ccccc23)cc1` [compound 59], on M1 muscarinic receptor, the Emax was under 25% and the “M1 Activity” value was “+ (activity was measured to be greater than 5.0 μM)”. On M4 muscarinic receptor, the Emax was under 25% and the “M4 Activity” value is “+ (activity was measured to be greater than 5.0 μM)”.
Regarding `CCCCNC(=O)N1Cc2ccccc2C2(CCN(C3CC4CCC(C3)N4C(=O)OCC)CC2)C1` (stereo not shown) [compound 61], on M1 muscarinic receptor, the Emax fell in the range of 25 to 100% and the “M1 Activity” value was “+++ (activity was measured to be less than 1.0 μM)”. Also, on M4 muscarinic receptor, the Emax is 25 to 100% and the “M4 Activity” value is “+++ (activity was measured to be less than 1.0 μM)”.
`CCOC(=O)N1CCC(CN2CCC3(CC2)CN(C(=O)CC)Cc2ccccc23)CC1` [compound 63]: on M1 muscarinic receptor, the Emax lay within 25 to 100% and the “M1 Activity” value is given as “+++ (activity was measured to be less than 1.0 μM)”. Besides, at M4 muscarinic receptor, the Emax fell in the range of 25 to 100% and the “M4 Activity” value is “+++ (activity was measured to be less than 1.0 μM)”.
Turning to `CCOC(=O)N1C2CCC1CC(N1CCC3(CC1)CN(C(=O)C1(C(F)(F)F)CC1)Cc1ccccc13)C2` (stereo not shown) [compound 64], on M1 muscarinic receptor, the Emax was in the range of 25 to 100% and the “M1 Activity” value was “+++ (activity was measured to be less than 1.0 μM)”. Besides, at M4 muscarinic receptor, the Emax is 25 to 100% and the “M4 Activity” value is “+++ (activity was measured to be less than 1.0 μM)”.
Regarding `CC(=O)N1Cc2ccccc2C2(CCN(CC3=C(C)C=CCC3(C)C)CC2)C1` [compound 65], on M1 muscarinic receptor, the Emax is 25 to 100% and the “M1 Activity” value is given as “+ (activity was measured to be greater than 5.0 μM)”. At M4 muscarinic receptor, the Emax was 25 to 100% and the “M4 Activity” value is “+ (activity was measured to be greater than 5.0 μM)”.
Consider `COc1ccc(CN2CCC3(CC2)CN(C(C)=O)Cc2ccccc23)cc1` [compound 66], for which, at M1 muscarinic receptor, the Emax is under 25% and the “M1 Activity” value is “+ (activity was measured to be greater than 5.0 μM)”. Further, at M4 muscarinic receptor, the Emax was under 25% and the “M4 Activity” value is on record as “+ (activity was measured to be greater than 5.0 μM)”.
On to `CCOC(=O)N1C2CCC1CC(N1CCC3(CC1)CN(S(=O)(=O)c1ccc(OC(F)(F)F)cc1)Cc1ccccc13)C2` (stereo not shown) [compound 67], for which, on M1 muscarinic receptor, the Emax lay in the range of 25 to 100% and the “M1 Activity” value was “++ (activity was measured to be from 1.0 μM to 5.0 μM)”. Also, at M4 muscarinic receptor, the Emax lay within 25 to 100% and the “M4 Activity” value is on record as “+++ (activity was measured to be less than 1.0 μM)”.
For the compound `CCOC(=O)C1CCC(N2CCC3(CC2)CN(C(C)=O)Cc2ccccc23)CC1` (stereo not shown) [compound 68], at M1 muscarinic receptor, the Emax lay in the range of 25 to 100% and the “M1 Activity” value is given as “+++ (activity was measured to be less than 1.0 μM)”. At M4 muscarinic receptor, the Emax was 25 to 100% and the “M4 Activity” value is given as “+++ (activity was measured to be less than 1.0 μM)”.

For orientation: Emax means the size of the effect at its maximum, as opposed to the concentration needed.
